Measurements: patent US5480867A, “Glucagon analogs with serine replacements” (The Rockefeller University, priority 1994, dated 1996)
Residues, ends and D or L forms follow the SMILES beside them. No end group written: not given here.

Legend:
[1] = target: glucagon receptor (Homo sapiens, UniProt P47871); conditions: background statement; cited from earlier work
[2] = tested on: adenylate cyclase; conditions: background statement; cited from earlier work
[3] = tested on: adenylate cyclase; conditions: for % Relative Activity: adenylate cyclase activity relative to glucagon, liver membranes, analogs measured as amides; for pA2: negative logarithm of antagonist concentration reducing response to 1 unit agonist to that of 0.5 unit, measured as amides
Method: Adenylate Cyclase Assay. The assay on liver membranes was performed according to Salomon et al. [Salomon, Y., Londos, C. & rodgell, M. Anal. Biochem. 58, 541, 548 (1974)]. The released cAMP was mixed with [8-^3 H]cAMP measured with a high affinity cAMP binding protein.
The purpose of the adenylate cyclase assay is to measure the ability of the compound under test to stimulate the activity of adenylate cyclase. The assays are used to measure relative potency, maximum activity and inhibition index.
The inhibition index, defined above, was determined from adenylate cyclase assays by two different protocols.
1. A glucagon standard curve for cAMP vs glucagon concentration was established. Then another glucagon assay curve was measured in the presence of a constant amount of antagonist.
2. A series of tubes were set up containing an amount of glucagon which will produce 90% of maximum response. Increasing amounts of antagonist were then added and the concentration that reduced the response to 45% of maximum was determined.

Sequence of glucagon receptor (P47871 26-477, species assumed): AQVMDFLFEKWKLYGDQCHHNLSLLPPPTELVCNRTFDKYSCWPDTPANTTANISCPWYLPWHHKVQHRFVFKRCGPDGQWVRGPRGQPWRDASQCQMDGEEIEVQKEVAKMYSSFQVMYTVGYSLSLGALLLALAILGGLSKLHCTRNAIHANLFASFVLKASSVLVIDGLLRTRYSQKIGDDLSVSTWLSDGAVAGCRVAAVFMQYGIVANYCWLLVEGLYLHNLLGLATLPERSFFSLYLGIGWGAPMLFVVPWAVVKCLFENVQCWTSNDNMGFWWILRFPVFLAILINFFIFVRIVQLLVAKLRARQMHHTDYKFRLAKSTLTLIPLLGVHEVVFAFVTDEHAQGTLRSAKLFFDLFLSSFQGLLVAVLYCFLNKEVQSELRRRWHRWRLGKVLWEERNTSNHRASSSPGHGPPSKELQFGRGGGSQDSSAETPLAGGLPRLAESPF

Row | Molecule | binding to the glucagon receptor [1] | activation of adenylate cyclase [2] | % Relative Activity [3] | pA2 [3]
1 | Nα-trinitrophenyl [12-homoarginine]glucagon | does bind to the glucagon receptor | without significant activation of adenylate cyclase |  | 
2 | SQGTFTSEYAKYLDARRAQEFVQWLMNT-NH2 [Analog 5, des-His^1 Glu^9 Ala^11 Ala^16 Glu^21] |  |  | 0.016% | 8.5
3 | CCCC[C@H](NC(=O)[C@H](CO)NC(=O)[C@@H](NC(=O)[C@H](Cc1ccccc1)NC(=O)[C@@H](NC(=O)CNC(=O)[C@H](CCC(N)=O)NC(=O)[C@@H](N)CO)[C@@H](C)O)[C@@H](C)O)C(=O)N[C@@H](Cc1ccc(O)cc1)C(=O)N[C@@H](CO)C(=O)N[C@@H](CCCCN)C(=O)N[C@@H](Cc1ccc(O)cc1)C(=O)N[C@@H](CC(C)C)C(=O)N[C@@H](CC(=O)O)C(=O)N[C@@H](C)C(=O)N[C@@H](CCCNC(=N)N)C(=O)N[C@@H](CCCNC(=N)N)C(=O)N[C@@H](C)C(=O)N[C@@H](CCC(N)=O)C(=O)N[C@@H](CC(=O)O)C(=O)N[C@@H](Cc1ccccc1)C(=O)N[C@H](C(=O)N[C@@H](CCC(N)=O)C(=O)N[C@@H](Cc1c[nH]c2ccccc12)C(=O)N[C@@H](CC(C)C)C(=O)N[C@@H](CCSC)C(=O)N[C@@H](CC(N)=O)C(=O)N[C@H](C(N)=O)[C@@H](C)O)C(C)C [Analog 2, des-His^1 Nle^9 Ala^16] (HELM PEPTIDE1{S.Q.G.T.F.T.S.[Nle].Y.S.K.Y.L.D.A.R.R.A.Q.D.F.V.Q.W.L.M.N.T.[am]}$$$$V2.0) |  |  | 0.001% | 8.4
4 | CCCC[C@H](NC(=O)[C@H](CO)NC(=O)[C@@H](NC(=O)[C@H](Cc1ccccc1)NC(=O)[C@@H](NC(=O)CNC(=O)[C@H](CCC(N)=O)NC(=O)[C@@H](N)CO)[C@@H](C)O)[C@@H](C)O)C(=O)N[C@@H](Cc1ccc(O)cc1)C(=O)N[C@@H](C)C(=O)N[C@@H](CCCCN)C(=O)N[C@@H](Cc1ccc(O)cc1)C(=O)N[C@@H](CC(C)C)C(=O)N[C@@H](CC(=O)O)C(=O)N[C@@H](CCC(N)=O)C(=O)N[C@@H](CCCNC(=N)N)C(=O)N[C@@H](CCCNC(=N)N)C(=O)N[C@@H](C)C(=O)N[C@@H](CCC(N)=O)C(=O)N[C@@H](CC(=O)O)C(=O)N[C@@H](Cc1ccccc1)C(=O)N[C@H](C(=O)N[C@@H](CCC(N)=O)C(=O)N[C@@H](Cc1c[nH]c2ccccc12)C(=O)N[C@@H](CC(C)C)C(=O)N[C@@H](CCSC)C(=O)N[C@@H](CC(N)=O)C(=O)N[C@H](C(N)=O)[C@@H](C)O)C(C)C [Analog 4, des-His^1 Nle^9 Ala^11 Gln^16] (HELM PEPTIDE1{S.Q.G.T.F.T.S.[Nle].Y.A.K.Y.L.D.Q.R.R.A.Q.D.F.V.Q.W.L.M.N.T.[am]}$$$$V2.0) |  |  | 0.0011% | 8.4
5 | CCCC[C@H](NC(=O)[C@H](CO)NC(=O)[C@@H](NC(=O)[C@H](Cc1ccccc1)NC(=O)[C@@H](NC(=O)CNC(=O)[C@H](CCC(N)=O)NC(=O)[C@@H](N)CO)[C@@H](C)O)[C@@H](C)O)C(=O)N[C@@H](Cc1ccc(O)cc1)C(=O)N[C@@H](C)C(=O)N[C@@H](CCCCN)C(=O)N[C@@H](Cc1ccc(O)cc1)C(=O)N[C@@H](CC(C)C)C(=O)N[C@@H](CC(=O)O)C(=O)N[C@@H](C)C(=O)N[C@@H](CCCNC(=N)N)C(=O)N[C@@H](CCCNC(=N)N)C(=O)N[C@@H](C)C(=O)N[C@@H](CCC(N)=O)C(=O)N[C@@H](CC(=O)O)C(=O)N[C@@H](Cc1ccccc1)C(=O)N[C@H](C(=O)N[C@@H](CCC(N)=O)C(=O)N[C@@H](Cc1c[nH]c2ccccc12)C(=O)N[C@@H](CC(C)C)C(=O)N[C@@H](CCSC)C(=O)N[C@@H](CC(N)=O)C(=O)N[C@H](C(N)=O)[C@@H](C)O)C(C)C [Analog 3, des-His^1 Nle^9 Ala^11 Ala^16] (HELM PEPTIDE1{S.Q.G.T.F.T.S.[Nle].Y.A.K.Y.L.D.A.R.R.A.Q.D.F.V.Q.W.L.M.N.T.[am]}$$$$V2.0) |  |  | 0.0043% | 8.4
6 | CCCC[C@H](NC(=O)[C@H](CO)NC(=O)[C@@H](NC(=O)[C@H](Cc1ccccc1)NC(=O)[C@@H](NC(=O)CNC(=O)[C@H](CCC(N)=O)NC(=O)[C@H](CO)NC(=O)[C@@H](N)Cc1c[nH]cn1)[C@@H](C)O)[C@@H](C)O)C(=O)N[C@@H](Cc1ccc(O)cc1)C(=O)N[C@@H](C)C(=O)N[C@@H](CCCCN)C(=O)N[C@@H](Cc1ccc(O)cc1)C(=O)N[C@@H](CC(C)C)C(=O)N[C@@H](CC(=O)O)C(=O)N[C@@H](CCC(N)=O)C(=O)N[C@@H](CCCNC(=N)N)C(=O)N[C@@H](CCCNC(=N)N)C(=O)N[C@@H](C)C(=O)N[C@@H](CCC(N)=O)C(=O)N[C@@H](CC(=O)O)C(=O)N[C@@H](Cc1ccccc1)C(=O)N[C@H](C(=O)N[C@@H](CCC(N)=O)C(=O)N[C@@H](Cc1c[nH]c2ccccc12)C(=O)N[C@@H](CC(C)C)C(=O)N[C@@H](CCSC)C(=O)N[C@@H](CC(N)=O)C(=O)N[C@H](C(N)=O)[C@@H](C)O)C(C)C [Analog 1, Nle^9 Ala^11 Gln^16] (HELM PEPTIDE1{H.S.Q.G.T.F.T.S.[Nle].Y.A.K.Y.L.D.Q.R.R.A.Q.D.F.V.Q.W.L.M.N.T.[am]}$$$$V2.0) |  |  | 0.003% | 8.7
